Laboratory results as given in US20220054465A1, “(PYRIDIN-2-YL)AMINE DERIVATIVES AS TGF-BETA R1 (ALK5) INHIBITORS FOR THE TREATMENT OF CANCER” (Nexys Therapeutics, Inc., priority 2018, published 2022).

Each compound was assayed on HEK-Blue TGFβ cell (assay: HEK-Blue TGFβ cellular reporter gene assay (SEAP readout)). Conditions: HEK-Blue TGFβ cells stimulated with TGF-β, 22-23 h incubation, SEAP read at 630 nm.
Type: cell-based
Procedure: HEK-Blue TGFβ Cellular Reporter Gene Assay:
HEK-Blue TGFβ cell was purchased from Invivogen. Cell suspension of 2.5×10^5 cells/ml was prepared using Test Medium (DMEM containing 0.5% v/v heat-inactivated FBS). TGF-β working solution (6 ng/ml) was obtained through diluting TGF-β stock solution (10 μg/ml) by Test Medium before use. Eight different concentrations of all compounds were obtained by 3× gradient dilution method using TGF-β working solution. Add 100 μl of Test Medium (Vehicle) or test article or TGF-β working solution per well of a flat-bottom 96-well plate. Add 100 μl of HEK-Blue TGF-β cell suspension per well. Incubate the plate at 37° C. in a CO2 incubator for 22-23 h. Add 150 μl of resuspended QUANTI-Blue per well of a new flat-bottom 96-well plate. Add 30 μl of induced HEK-Blue TGF-β cells supernatant. Avoid pipetting at the bottom of wells. Incubate the plate at 37° C. incubator for 30-40 min. Determine secreted embryonic alkaline phosphatase (SEAP) levels using a spectrophotometer at 630 nm.
The inhibition was calculated using the equation: […]
`Cc1ccc(Oc2ccnc(Nc3cccc(C(C)(C)C(=O)O)c3)c2)c(-c2ccccn2)n1` [Example 72, 2-methyl-2-(3-((4-((6-methyl-[2,2′-bipyridin]-3-yl)oxy)pyridin-2-yl)amino)phenyl)propanoic acid] was tested, and the IC50 was 180 nM. `Cc1ccc(Oc2ccnc(Nc3cccc(C(C)(C)C(=O)O)c3)c2)c(C)n1` [Example 73] was tested, and the IC50 was 140 nM. `Cc1nc(-c2ccccc2)ccc1Oc1ccnc(Nc2cccc(C(C)(C)C(=O)O)c2)c1` [Example 75] was tested, and the IC50 was 8120 nM. With `Cc1cc(Oc2ccnc(Nc3cccc(OCC(=O)O)c3)c2)c(-c2ccccn2)nc1C` [Example 76] the IC50 was over 10000 nM. `Cc1ccc(Oc2ccnc(Nc3cccc(C4(C(=O)O)CC4)c3)c2)c(-c2ccccc2)n1` [Example 77, 1-(3-((4-((6-methyl-2-phenylpyridin-3-yl)oxy)pyridin-2-yl)amino)phenyl)cyclopropane-1-carboxylic acid] showed an IC50 of 80 nM. `Cc1ccc(Oc2ccnc(Nc3cccc(C(C)(C)C(=O)O)c3)c2)c(-c2cccc(Cl)c2)n1` [Example 78] showed an IC50 of 110 nM. `Cc1ccc(Oc2ccnc(Nc3cccc(C(C)(C)C(=O)O)c3)c2)c(-c2ccc(Cl)cc2)n1` [Example 79] was tested, and the IC50 was 180 nM. `Cc1ccc(Oc2ccnc(Nc3cccc(C(C)(C)C(=O)O)c3)c2)c(-c2ccccc2Cl)n1` [Example 80] gave an IC50 of 110 nM. `CCc1nc(C)c(Oc2ccnc(Nc3cccc(C(C)(C)C(=O)O)c3)c2)cc1C` [Example 82] showed an IC50 of 18 nM. For `CCc1nc(C)c(Oc2ccnc(Nc3cccc(C(C)(C)C(=O)O)c3)c2)cc1Cl` [Example 83], the IC50 was 35 nM. In the case of `CCc1ccc(Oc2ccnc(Nc3cccc(C(C)(C)C(=O)O)c3)c2)c(-c2ccccn2)n1` [Example 84], the IC50 is reported as 55 nM. In the case of `CCc1nc(-c2ccccn2)c(Oc2ccnc(Nc3cccc(C(C)(C)C(=O)O)c3)c2)cc1C` [Example 85], the IC50 is reported as 44 nM. Work on `COc1ccccc1-c1nc(C)ccc1Oc1ccnc(Nc2cccc(C(C)(C)C(=O)O)c2)c1` [Example 86] yielded an IC50 of 240 nM. `COc1cccc(-c2nc(C)ccc2Oc2ccnc(Nc3cccc(C(C)(C)C(=O)O)c3)c2)c1` [Example 87] gave an IC50 of 94 nM. `COc1ccc(-c2nc(C)ccc2Oc2ccnc(Nc3cccc(C(C)(C)C(=O)O)c3)c2)cc1` [Example 88] was tested, and the IC50 was 39 nM. In the case of `Cc1ccc(Oc2ccnc(Nc3cccc(C(C)(C)C(=O)O)c3)c2)c(-c2ccccc2F)n1` [Example 89], the IC50 is reported as 27 nM. Work on `Cc1ccc(Oc2ccnc(Nc3cccc(C(C)(C)C(=O)O)c3)c2)c(-c2cccc(F)c2)n1` [Example 90] yielded an IC50 of 24 nM. `Cc1ccc(Oc2ccnc(Nc3cccc(C(C)(C)C(=O)O)c3)c2)c(-c2ccc(F)cc2)n1` [Example 91] showed an IC50 of 18 nM. `Cc1ccc(Oc2ccnc(Nc3cccc(C(C)(C)C(=O)O)c3)c2)c(-c2ccccc2C)n1` [Example 92] gave an IC50 of 80 nM. Compound `Cc1cccc(-c2nc(C)ccc2Oc2ccnc(Nc3cccc(C(C)(C)C(=O)O)c3)c2)c1` [Example 93] has an IC50 of 120 nM. Compound `Cc1ccc(-c2nc(C)ccc2Oc2ccnc(Nc3cccc(C(C)(C)C(=O)O)c3)c2)cc1` [Example 94] has an IC50 of 64 nM. With `Cc1ccc(Oc2ccnc(Nc3cccc(C(C)(C)C(=O)O)c3)c2)c(-c2ccccc2C#N)n1` [Example 95] the IC50 was 290 nM. `Cc1ccc(Oc2ccnc(Nc3cccc(C(C)(C)C(=O)O)c3)c2)c(-c2cccc(C#N)c2)n1` [Example 96] showed an IC50 of 190 nM. Work on `Cc1ccc(Oc2ccnc(Nc3cccc(C(C)(C)C(=O)O)c3)c2)c(-c2ccc(C#N)cc2)n1` [Example 97] yielded an IC50 of 200 nM. In the case of `Cc1cc(Oc2ccnc(Nc3cccc(C(C)(C)C(=O)O)c3)c2)c(-c2ccccc2)nc1C` [Example 98], the IC50 is reported as 51 nM. `Cc1nc(-c2ccccc2)c(Oc2ccnc(Nc3cccc(C(C)(C)C(=O)O)c3)c2)cc1Cl` [Example 99] was tested, and the IC50 was 23 nM. `CCc1cc(Oc2ccnc(Nc3cccc(C(C)(C)C(=O)O)c3)c2)c(-c2ccccc2)nc1C` [Example 100] was tested, and the IC50 was 2590 nM. `Cc1nc(-c2ccccc2)c(Oc2ccnc(Nc3cccc(C(C)(C)C(=O)O)c3)c2)cc1C1CC1` [Example 101] was tested, and the IC50 was 3310 nM. `Cc1nc(-c2ccccc2)c(Oc2ccnc(Nc3cccc(C(C)(C)C(=O)O)c3)c2)cc1C(C)C` [Example 102] gave an IC50 of 2710 nM. `Cc1nc(-c2ccccc2)c(Oc2ccnc(Nc3cccc(C(C)(C)C(=O)O)c3)c2)cc1C(C)(C)O` [Example 103] was tested, and the IC50 was over 10000 nM. Work on `CC(C)(C(=O)O)c1cccc(Nc2cc(Oc3ccc(C4CC4)nc3-c3ccccc3)ccn2)c1` [Example 105] yielded an IC50 of 130 nM. With `CCCc1ccc(Oc2ccnc(Nc3cccc(C(C)(C)C(=O)O)c3)c2)c(-c2ccccc2)n1` [Example 106] the IC50 was 120 nM. `CC(C)c1ccc(Oc2ccnc(Nc3cccc(C(C)(C)C(=O)O)c3)c2)c(-c2ccccc2)n1` [Example 107] was tested, and the IC50 was 180 nM. `Cc1ccc(Oc2ccnc(Nc3cccc(C(C)(C)C(=O)O)c3)c2)c(C2CCOCC2)n1` [Example 108] was tested, and the IC50 was 900 nM. In the case of `Cc1cc(Oc2ccnc(Nc3cccc(C(C)(C)CC(=O)O)c3)c2)c(-c2ccccn2)nc1C` [Example 109], the IC50 is reported as 51 nM. `Cc1ccc(Oc2ccnc(Nc3cccc(C(C)(C)CC(=O)O)c3)c2)c(-c2ccccc2)n1` [Example 110] showed an IC50 of 30 nM. Work on `O=C(O)c1cccc(Nc2cc(Oc3cn(C4CC4)nc3C3CCOCC3)ccn2)c1` [Example 111] yielded an IC50 of 6200 nM. `Cc1cc(Nc2cc(Oc3cn(C4CC4)nc3C3CCOCC3)ccn2)cc(C(=O)O)c1` [Example 112] gave an IC50 of 1670 nM. `CC(C)(C(=O)O)c1ccc(Nc2cc(Oc3cn(C4CC4)nc3C3CCOCC3)ccn2)cc1` [Example 113] was tested, and the IC50 was 510 nM. `Cc1ccc(Nc2cc(Oc3cn(C4CC4)nc3C3CCOCC3)ccn2)cc1C(=O)O` [Example 114] showed an IC50 of 2540 nM. With `Cc1ccc(Nc2cc(Oc3cn(C4CC4)nc3C3CCOCC3)ccn2)cc1CC(=O)O` [Example 115] the IC50 was 1100 nM. `O=C(O)c1cc(Nc2cc(Oc3cn(C4CC4)nc3C3CCOCC3)ccn2)ccn1` [Example 117] gave an IC50 of over 10000 nM. For `CC(C)(C(=O)O)c1cccc(Nc2cc(Oc3cn(C4CCC4)nc3C3CCOCC3)ccn2)c1` [Example 118], the IC50 was 310 nM. Work on `CC(C)(C(=O)O)c1cccc(Nc2cc(Oc3cn(C4CC4)nc3-c3ccccc3)ccn2)c1` [Example 119] yielded an IC50 of 13 nM. Compound `Cn1cc(Oc2ccnc(Nc3cccc(C(C)(C)C(=O)O)c3)c2)c(-c2ccccc2)n1` [Example 120] has an IC50 of 50 nM. `CC(C)(C(=O)O)c1cccc(Nc2cc(Oc3cn(C(F)F)nc3-c3ccccc3)ccn2)c1` [Example 121] gave an IC50 of 78 nM. In the case of `CCn1cc(Oc2ccnc(Nc3cccc(C(C)(C)C(=O)O)c3)c2)c(-c2ccccc2)n1` [Example 122], the IC50 is reported as 29 nM. For `CC(C)(C(=O)O)c1cccc(Nc2cc(Oc3cn(CC(F)F)nc3-c3ccccc3)ccn2)c1` [Example 123], the IC50 was 180 nM. Work on `CC(C)n1cc(Oc2ccnc(Nc3cccc(C(C)(C)C(=O)O)c3)c2)c(-c2ccccc2)n1` [Example 124] yielded an IC50 of 190 nM. `CC(C)(C(=O)O)c1cccc(Nc2cc(Oc3cn(C4CCC4)nc3-c3ccccc3)ccn2)c1` [Example 125] showed an IC50 of 66 nM. Compound `CC(C)(C(=O)O)c1cccc(Nc2cc(Oc3cn(C4COC4)nc3-c3ccccc3)ccn2)c1` [Example 126] has an IC50 of 200 nM. Work on `CC(C)(C(=O)O)c1cccc(Nc2cc(Oc3cn(C4CC4)nc3C3CCCCC3)ccn2)c1` [Example 127] yielded an IC50 of 12 nM. `CC(C)(C(=O)O)c1cccc(Nc2cc(Oc3cn(C4CC4)nc3C3CCCC3)ccn2)c1` [Example 128] gave an IC50 of 22 nM. Work on `CC(C)(C(=O)O)c1cccc(Nc2cc(Oc3cn(C4CC4)nc3C3CCC3)ccn2)c1` [Example 129] yielded an IC50 of 29 nM.
